Measurements from patent US20220133842A1 (priority 2019, published 2022).
In brackets after ≈: the same amount, converted by molar mass. Several values for one entry are separate records, joined by “and”; a condition that tells them apart may be missing. Equal entries are not always repeated. Where two headings read alike, the source gives them in different places.

Columns and labels:
[1] = test system: Clostridium perfringens (ATCC 13124); assay: microbe, parasite or virus in culture; conditions: ATCC13124
[2] = test system: Citrobacter rodentium (ATCC 51116); assay type: cell-based
[3] = test system: Helicobacter pylori (ATCC 43504); assay: microbe, parasite or virus in culture; assay type: cell-based
[4] = test system: Mycobacterium smegmatis (ATCC 700084); assay type: cell-based
[5] = test system: Bacillus subtilis (DSM 347); assay type: cell-based
[6] = test system: Streptococcus pyogenes (DSM 20565); assay: microbe, parasite or virus in culture; assay type: cell-based
[7] = test system: IPEC-J2 cells; assay: cells; assay type: cell-based, pig; conditions: read-out: IC50 (concentration causing 50% cell death)
[8] = test system: Enterococcus faecalis (DSM 13591); assay: microbe, parasite or virus in culture; assay type: cell-based
[9] = test system: Aspergillus ochraceus (DSM 824); assay type: cell-based
[10] = test system: Klebsiella pneumoniae (DSMZ 26371); assay type: cell-based
[11] = test system: Propionibacterium acnes (ATCC 6919); assay: microbe, parasite or virus in culture; assay type: cell-based
[12] = test system: clinical strains of Clostridium perfringens isolated from human patients or animals; assay type: cell-based
[13] = test system: Aspergillus niger (ATCC 9142); assay type: cell-based
[14] = test system: Clostridium coccoides (DSM 935); assay: microbe, parasite or virus in culture; assay type: cell-based
[15] = test system: Listeria monocytogenes (DSM 20600); assay type: cell-based
[16] = test system: Clostridium perfringens (ATCC 13124)
[17] = test system: Clostridium perfringens strain (ATCC 13124) and clinical strains of Clostridium perfringens; assay type: cell-based
[18] = test system: Arthrobacter gandavensis (DSM 2447); assay type: cell-based
[19] = test system: Clostridium perfringens (ATCC 13124); assay type: cell-based
[20] = test system: Clostridium difficile (DSM 1296); assay: microbe, parasite or virus in culture; assay type: cell-based
[21] = test system: Micrococcus luteus (DSM 20030); assay type: cell-based
[22] = test system: Acinetobacter baumannii (CIP 110431); assay type: cell-based
[23] = test system: Bacteroides thetaioataomicron (DSM 2255); assay: microbe, parasite or virus in culture; assay type: cell-based
[24] = test system: Clostridium perfringens (ATCC13124); assay type: cell-based
[25] = test system: Lactococcus lactis (DSM 20481); assay type: cell-based
[26] = test system: Clostridium botulinum (DSM 1985); assay: microbe, parasite or virus in culture; assay type: cell-based
[27] = test system: Aspergillus flavus (DSM 1959); assay type: cell-based
[28] = test system: Caco-2 cells (ATCC HTB-37); assay: cells; assay type: cell-based, human; conditions: read-out: IC50 (concentration causing 50% cell death)
[29] = test system: Clostridium propionicum (DSM 6251); assay: microbe, parasite or virus in culture; assay type: cell-based
[30] = test system: Streptococcus thermophilus (ATCC LMD-9); assay: microbe, parasite or virus in culture; assay type: cell-based
[31] = test system: Klebsiella variicola (DSM 15968); assay type: cell-based
[32] = test system: Lactobacillus acidophilus (DSM 20079); assay: microbe, parasite or virus in culture; assay type: cell-based
[33] = test system: human (Caco-2 and T84) and pig (IPEC-J2) intestinal cells
[34] = test system: Escherichia coli (ATCC 8739); assay type: cell-based
[35] = test system: T84 cells (ATCC CCL-248); assay: cells; assay type: cell-based, human; conditions: read-out: IC50 (concentration causing 50% cell death)
[36] = test system: Fusarium oxysporum (DSM 62316); assay type: cell-based
[37] = test system: Fusarium graminearum (DSM 1095); assay type: cell-based
[38] = test system: Shigella flexneri (ATCC 12022); assay type: cell-based
[39] = test system: Salmonella enterica (CIP 80.39); assay type: cell-based
[40] = test system: Penicillium verrucosum (DSM 12639); assay type: cell-based
[41] = test system: Candida albicans (DSM 10697); assay type: cell-based
[42] = test system: Citrobacter farmeri (ATCC 51633); assay type: cell-based
[43] = test system: Pseudomonas aeruginosa (CIP 107398); assay type: cell-based
[44] = test system: Staphylococcus aureus MRSA USA300 (ATCC BAA-1717); assay type: cell-based
[45] = test system: Clostridium perfringens (ATCC 13124); assay type: cell-based; remark: listed apart in the source
[46] = test system: Staphylococcus aureus (ATCC 6538P); assay type: cell-based
[47] = test system: Clostridium nexile (DSM 1787); assay: microbe, parasite or virus in culture; assay type: cell-based
[48] = test system: Fusarium verticillioides (DSM 62264); assay type: cell-based
[49] = test system: Bacillus cereus (DSM 31); assay type: cell-based
[50] = test system: human or porcine intestinal cells grown on inserts
[51] = test system: T84 cells
[52] = test system: Caco-2 cells
[53] = test system: IPEC-J2 cells
[54] = Clostridium perfringens, ATCC13124

Compound: CN(C)[C@@H]1C(O)=C(C(N)=O)C(=O)[C@@]2(O)C(O)=C3C(=O)c4c(O)cccc4[C@@](C)(O)[C@H]3C[C@@H]12 [Tetracycline]
- MIC [1]: 11.7 µM and 5.2 µg/mL

Compound: Destruxin B
- MIC [2]: >100 µM
- MIC [3]: >100 µM
- MIC [4]: >100 µM
- MIC [5]: >100 µM
- MIC [6]: >100 µM
- IC50 [7]: > 100000 nM
- MIC [8]: >100 µM
- MIC [9]: >100 µM
- MIC [10]: >100 µM
- MIC [11]: >100 µM
- MIC [12]: 3 µM and 1.5 µM
- MIC [13]: >100 µM
- MIC [14]: >100 µM
- MIC [15]: >100 µM
- MIC (mg/L) [16]: 1.78 mg/L
- minimum bactericidal concentrations (BMC values) [17]: identical to the MIC values
- MIC [18]: >100 µM
- morphological phenotype (mechanism of action) [19]: hypercondensation of bacterial DNA
- MIC [20]: >100 µM
- MIC [21]: >100 µM
- MIC [22]: >100 µM
- MIC [23]: >100 µM
- change of MIC during exposure [24]: do not change or change only slightly
- MIC [25]: >100 µM
- MIC [26]: >100 µM
- MIC [27]: >100 µM
- IC50 [28]: > 100 µM
- MIC [29]: >100 µM
- MIC [30]: >100 µM
- MIC [31]: >100 µM
- MIC [32]: >100 µM
- toxicity to intestinal cells [33]: not toxic
- MIC [34]: >100 µM
- IC50 [35]: > 100 µM
- MIC [36]: >100 µM
- MIC [37]: >100 µM
- MIC [38]: >100 µM
- MIC [39]: >100 µM
- MIC [40]: >100 µM
- MIC [41]: >100 µM
- MIC [42]: >100 µM
- MIC [43]: >100 µM
- MIC [44]: >100 µM
- permeabilisation of the bacterial membrane [45]: no permeabilisation
- MIC [46]: >100 µM
- MIC [47]: >100 µM
- MIC [48]: >100 µM
- MIC [49]: >100 µM

Compound: CO/C1=C\C(C)=C\[C@@H](C)[C@@H](O)[C@@H](C)C/C(C)=C/C=C/[C@H](OC)[C@@H]([C@@H](C)[C@@H](O)[C@H](C)[C@@]2(O)C[C@@H](O)[C@H](C)[C@@H](C(C)C)O2)OC1=O [Bafilomycin A1]
- MIC [2]: >100 µM
- MIC [3]: >100 µM
- MIC [4]: >100 µM
- MIC [5]: 100 µM (≈ 62.3 µg/mL)
- MIC [6]: 66 µM (≈ 41.1 µg/mL)
- IC50 [7]: 1800 nM
- MIC [8]: >100 µM
- MIC [9]: >100 µM
- MIC [10]: 100 µM (≈ 62.3 µg/mL)
- MIC [11]: 50 µM (≈ 31.1 µg/mL)
- MIC [13]: >100 µM
- MIC [14]: >100 µM
- MIC [15]: 25 µM (≈ 15.6 µg/mL)
- MIC [16, 54]: 25 µM (≈ 15.6 µg/mL)
- MIC (mg/L) [16, 54]: 15.5 mg/L (≈ 24.9 µM)
- MIC [18]: 3 µM (≈ 1.87 µg/mL)
- MIC [20]: >100 µM
- MIC [21]: 25 µM (≈ 15.6 µg/mL)
- MIC [22]: >100 µM
- decrease in transepithelial electrical resistance [50]: 61-75%
- MIC [23]: >100 µM
- MIC [25]: 50 µM (≈ 31.1 µg/mL)
- MIC ([26]; Clostridium botulinum, DSM1985): 6.25 µM (≈ 3.89 µg/mL)
- MIC [27]: 3.25 µM (≈ 2.02 µg/mL)
- IC50 [28]: 11.8 µM
- MIC [29]: 25 µM (≈ 15.6 µg/mL)
- transepithelial electrical resistance [51]: 118 ohm.cm2
- MIC [30]: 25 µM (≈ 15.6 µg/mL)
- MIC [31]: >100 µM
- MIC [32]: 33 µM (≈ 20.6 µg/mL)
- safety factor (IC50 in the toxicity test divided by MIC on Clostridium perfringens ATCC 13124) [33]: less than 1
- toxicity to intestinal cells [33]: toxic
- MIC [34]: 25 µM (≈ 15.6 µg/mL)
- IC50 [35]: 9.9 µM
- MIC [36]: >100 µM
- transepithelial electrical resistance [52]: 112 ohm.cm2
- MIC ([37]; Fusarium graminearum (DSM 1095)): 6.25 µM (≈ 3.89 µg/mL)
- MIC [38]: >100 µM
- MIC [39]: >100 µM
- MIC [41]: >100 µM
- MIC [42]: 100 µM (≈ 62.3 µg/mL)
- transepithelial electrical resistance [53]: 191 ohm.cm2
- MIC [43]: >100 µM
- MIC [44]: >100 µM
- MIC [46]: 12.5 µM (≈ 7.79 µg/mL)
- MIC [47]: 50 µM (≈ 31.1 µg/mL)
- MIC [48]: 50 µM (≈ 31.1 µg/mL)
- MIC [49]: 12.5 µM (≈ 7.79 µg/mL)
